Values after ≈ are worked out from the molar mass of the structure shown.

In the first assay the test system is Schistosoma japonicum. Kind of assay: Cercaricidal activity against Schistosoma japonicum infected in Oncomelania hupensis measured after 120 mins by colour television microscopy.
Conditions: not given
The class given is functional.
For the compound `CN(C)c1ccc(-n2cnc3c(Cl)cc(Cl)cc3c2=O)cc1`, the LC90 is recorded as 2.04 ppm.

Consider `O=c1c2cc(Cl)cc(Cl)c2ncn1-c1ccc([N+](=O)[O-])cc1`, for which the LC90 is 1.52 ppm.

`O=c1c2cc(Cl)cc(Cl)c2ncn1-c1ccccc1` returned an LC90 of 2.19 ppm.

`COc1ccc(-n2cnc3c(Cl)cc(Cl)cc3c2=O)c(OC)c1`: the LC90 is recorded as 2.15 ppm.

Turning to `Cc1ccc(-n2cnc3ccc(Cl)cc3c2=O)c(C)c1`, the LC90 was 1.45 ppm.

In turn, `NCCO.O=C(Nc1ccc([N+](=O)[O-])cc1Cl)c1cc(Cl)ccc1O` gave an LC90 below 0.1 ppm.

As for `COc1cc(-n2cnc3ccc([N+](=O)[O-])cc3c2=O)cc(OC)c1OC`, the LC90 stood at 1.66 ppm.

For `Cc1ccc(-n2cnc3ccc([N+](=O)[O-])cc3c2=O)cc1`, the LC90 turned out to be 1.91 ppm.

Turning to `O=c1c2cc(Cl)ccc2ncn1-c1ccccc1`, the LC90 was found to be 1.55 ppm.

Consider `CCCn1cnc2ccc(Cl)cc2c1=O`, for which the LC90 is recorded as above 50 ppm.

On to `COc1cc([N+](=O)[O-])ccc1-n1cnc2c(Cl)cc(Cl)cc2c1=O`, for which the LC90 came to 1.72 ppm.

The same assay, now with this note: Schistosoma japonicum, 2 h.
In general, LC50 refers to the concentration lethal to half of the exposed cells or organisms. A lower LC50 goes with a more lethal substance. Compound `CN(C)c1ccc(-n2cnc3c(Cl)cc(Cl)cc3c2=O)cc1` showed an LC50 of 1.55 µg/mL (≈ 4.64 µM).

Consider `O=c1c2cc(Cl)cc(Cl)c2ncn1-c1ccc([N+](=O)[O-])cc1`, for which the median lethal concentration (LC50) is 1.15 µg/mL (≈ 3.42 µM). This LC50 and that of the compound before are within 1.5-fold of each other.

`O=c1c2cc(Cl)cc(Cl)c2ncn1-c1ccccc1` gave an LC50 of 1.66 µg/mL (≈ 5.7 µM).

Compound `COc1ccc(-n2cnc3c(Cl)cc(Cl)cc3c2=O)c(OC)c1` registered a 50% lethal concentration (LC50) of 1.64 µg/mL (≈ 4.67 µM).

The compound `Cc1ccc(-n2cnc3ccc(Cl)cc3c2=O)c(C)c1` returned an LC50 of 1.1 µg/mL (≈ 3.86 µM).

Consider `NCCO.O=C(Nc1ccc([N+](=O)[O-])cc1Cl)c1cc(Cl)ccc1O`, for which the 50% lethal concentration (LC50) was below 0.1 µg/mL.

Compound `COc1cc(-n2cnc3ccc([N+](=O)[O-])cc3c2=O)cc(OC)c1OC` returned an LC50 of 1.26 µg/mL (≈ 3.53 µM).

On to `Cc1ccc(-n2cnc3ccc([N+](=O)[O-])cc3c2=O)cc1`, for which the LC50 was 1.45 µg/mL (≈ 5.16 µM).

Consider `O=c1c2cc(Cl)ccc2ncn1-c1ccccc1`, for which the median lethal concentration (LC50) came out at 1.17 µg/mL (≈ 4.56 µM).

As to `CCCn1cnc2ccc(Cl)cc2c1=O`, the LC50 was above 50 µg/mL.

In the case of `COc1cc([N+](=O)[O-])ccc1-n1cnc2c(Cl)cc(Cl)cc2c1=O`, the 50% lethal concentration (LC50) was 1.31 µg/mL (≈ 3.58 µM).

The subject of a further assay is Oncomelania hupensis. Kind of assay: Molluscicidal activity against Oncomelania hupensis measured after 24 hrs. The class given is functional.
Conditions: not given
Turning to `CN(C)c1ccc(-n2cnc3c(Cl)cc(Cl)cc3c2=O)cc1`, the LC90 worked out at 8.13 ppm.

Compound `O=c1c2cc(Cl)cc(Cl)c2ncn1-c1ccc([N+](=O)[O-])cc1` returned an LC90 of 6.11 ppm.

Turning to `O=c1c2cc(Cl)cc(Cl)c2ncn1-c1ccccc1`, the LC90 turned out to be 8.71 ppm.

In turn, `COc1ccc(-n2cnc3c(Cl)cc(Cl)cc3c2=O)c(OC)c1` returned an LC90 of 8.62 ppm.

`Cc1ccc(-n2cnc3ccc(Cl)cc3c2=O)c(C)c1` yielded an LC90 of 5.75 ppm.

Compound `NCCO.O=C(Nc1ccc([N+](=O)[O-])cc1Cl)c1cc(Cl)ccc1O` came in with an LC90 below 1 ppm.

As to `COc1cc(-n2cnc3ccc([N+](=O)[O-])cc3c2=O)cc(OC)c1OC`, the LC90 came out at 6.61 ppm.

Consider `Cc1ccc(-n2cnc3ccc([N+](=O)[O-])cc3c2=O)cc1`, for which the LC90 is 7.58 ppm.

With `O=c1c2cc(Cl)ccc2ncn1-c1ccccc1`, the LC90 is on record as 6.16 ppm.

As to `CCCn1cnc2ccc(Cl)cc2c1=O`, the LC90 is on record as above 100 ppm.

With `COc1cc([N+](=O)[O-])ccc1-n1cnc2c(Cl)cc(Cl)cc2c1=O`, the LC90 came out at 7.03 ppm.

The assay is the same for the next values; noted with them: Oncomelania hupensis, 24 h.
The compound `CN(C)c1ccc(-n2cnc3c(Cl)cc(Cl)cc3c2=O)cc1` displayed a median lethal concentration (LC50) of 6.17 µg/mL (≈ 18.5 µM).

Compound `O=c1c2cc(Cl)cc(Cl)c2ncn1-c1ccc([N+](=O)[O-])cc1` showed an LC50 of 4.65 µg/mL (≈ 13.8 µM).

`O=c1c2cc(Cl)cc(Cl)c2ncn1-c1ccccc1`: the LC50 is 6.61 µg/mL (≈ 22.7 µM).

For `COc1ccc(-n2cnc3c(Cl)cc(Cl)cc3c2=O)c(OC)c1`, the 50% lethal concentration (LC50) turned out to be 6.55 µg/mL (≈ 18.7 µM). This LC50 and that of the compound before are within 1.5-fold of each other.

Consider `Cc1ccc(-n2cnc3ccc(Cl)cc3c2=O)c(C)c1`, for which the LC50 amounted to 4.36 µg/mL (≈ 15.3 µM).

With `NCCO.O=C(Nc1ccc([N+](=O)[O-])cc1Cl)c1cc(Cl)ccc1O`, the LC50 was below 1 µg/mL.

`COc1cc(-n2cnc3ccc([N+](=O)[O-])cc3c2=O)cc(OC)c1OC` yielded a 50% lethal concentration (LC50) of 5.01 µg/mL (≈ 14 µM).

For `Cc1ccc(-n2cnc3ccc([N+](=O)[O-])cc3c2=O)cc1`, the LC50 amounted to 5.75 µg/mL (≈ 20.4 µM).

The compound `O=c1c2cc(Cl)ccc2ncn1-c1ccccc1` showed a 50% lethal concentration (LC50) of 4.68 µg/mL (≈ 18.2 µM).

As for `CCCn1cnc2ccc(Cl)cc2c1=O`, the LC50 is above 100 µg/mL.

In turn, `COc1cc([N+](=O)[O-])ccc1-n1cnc2c(Cl)cc(Cl)cc2c1=O` had an LC50 of 5.34 µg/mL (≈ 14.6 µM).

These data come from ChEMBL document CHEMBL3792356, “Discovery of molluscicidal and cercaricidal activities of 3-substituted quinazolinone derivatives by a scaffold hopping approach using a pseudo-ring based on the intramolecular hydrogen bond formation” (Eur J Med Chem, 2016).
